What is called melting point is the temperature, or range, at which the solid turns liquid.

In data set [1] the target is T1, Hb (Homo sapiens, UniProt P68871+P69905, E7V).
T1 construct: Leftover blood samples from patients with homozygous SS were obtained and utilized; from tissue; host or cells: blood (red cells, then hemolysate) of patients with homozygous SS
As to the kind of experiment: Hb oxygen equilibrium study (P50 shift, Hemox Analyzer) on lysate of compound-treated SS cells. The settings on record: intact SS cells; for activation at 2000 µM: 2 mM compound; for activation at 2000 µM / activation at 5000 µM: read-out: increase in Hb oxygen affinity (ΔP50); for activation at 5000 µM: 5 mM compound; for effect on Hb affinity for oxygen: 2 mM and/or 5 mM. The class given is cell-based. The text has this:
(§1) Materials and General Procedure: Leftover blood samples from patients with homozygous SS were obtained and utilized, based on an approved IRB protocol at the Children's Hospital of Philadelphia, with informed consent.
(§2) Experimental Procedure: The MMA series of compounds (MMA-301, MMA-304, MMA-205, MMA-401, MMA-402, MMA-403, MMA-405, MMA-406, MMA-407, MMA-408, MMA-409 and MMA-410) and the positive controls vanillin and 5-HMF were studied for their abilities to inhibit hypoxia-induced RBC sickling (RBC morphology study), increase Hb oxygen, and/or modify Hb (adduct formation) as previously published.^31,33 Briefly, homozygous SS blood (hematocrit: 20%) suspensions were incubated under air in the absence or presence of 2 and/or 5 mM concentration of test compounds at 37° C. for 1 hr. Following, the suspensions were incubated under hypoxic condition (2.5% oxygen) at 37° C. for 2 hr. Aliquot samples were fixed with 2% glutaraldehyde solution without exposure to air, and then subjected to microscopic morphological analysis. The residual samples were washed in phosphate-buffered saline, and hemolyzed in hypotonic lysis buffer for the Hb oxygen equilibrium and Hb adduct experiments. For the Hb oxygen equilibrium study, approximately 100 μl aliquot samples from the lysate were added to 4 ml of 0.1M potassium phosphate buffer, pH 7.0, in a cuvette and subjected to hemoximetry analysis using Hemox™ Analyzer (TCS Scientific Corp.) to assess P50 shifts. Another aliquot from the lysate was also subjected to Hb adduct formation study using cation-exchange HPLC (Hitachi D-7000 Series, Hitachi Instruments, Inc., San Jose, Calif.) with a weak cation-exchange column (Poly CAT A: 30 mm×4.6 mm, Poly LC, Inc., Columbia, Md.). To determine the binding of the MMA compounds to either α- or β-globin chains, the hemolysates were subjected to reversed-phase (RP) HPLC on a Hitachi D-7000 HSM Series, using a Jupiter 5 μm C-4 50×4.6 mm column, (Phenomenex®, Torrence, Calif.) and a gradient from 20% to 60% acetonitrile in 0.3% trifluoroacetic acid in 15 minutes, with UV detection at 215 nm.

The subject of another data set is intact SS cells. As to the kind of experiment: Inhibition of hypoxia-induced RBC sickling (RBC morphology study) in homozygous SS blood. The class given is cell-based, human. The settings on record: SS blood hematocrit 20%, 2.5% oxygen, 37° C., 2 hr.
Source text: as §1, §2

Data set [2] addresses T1, Hb. As to the kind of experiment: Hb adduct formation study by cation-exchange HPLC after incubation with intact SS cells. The class given is cell-based. Conditions: 2 mM and/or 5 mM.
Source text: as §1
(§3) Experimental Procedure: The MMA series of compounds (MMA-301, MMA-304, MMA-205, MMA-401, MMA-402, MMA-403, MMA-405, MMA-406, MMA-407, MMA-408, MMA-409 and MMA-410) and the positive controls vanillin and 5-HMF were studied for their abilities to inhibit hypoxia-induced RBC sickling (RBC morphology study), increase Hb oxygen, and/or modify Hb (adduct formation) as previously published.^31,33 Briefly, homozygous SS blood (hematocrit: 20%) suspensions were incubated under air in the absence or presence of 2 and/or 5 mM concentration of test compounds at 37° C. for 1 hr. Following, the suspensions were incubated under hypoxic condition (2.5% oxygen) at 37° C. for 2 hr. Aliquot samples were fixed with 2% glutaraldehyde solution without exposure to air, and then subjected to microscopic morphological analysis. The residual samples were washed in phosphate-buffered saline, and hemolyzed in hypotonic lysis buffer for the Hb oxygen equilibrium and Hb adduct experiments. […]

Another data set concerns the target T2, α- or β-globin chains (Homo sapiens, UniProt P68871+P69905, E7V).
T2 construct: Leftover blood samples from patients with homozygous SS were obtained and utilized; from tissue; host or cells: blood (red cells, then hemolysate) of patients with homozygous SS
As to the kind of experiment: Reversed-phase HPLC of hemolysates for binding to α- or β-globin chains. The class given is cell-based. The settings on record: 2 mM and 5 mM; intact SS cells; reverse-phase HPLC.
Source text: as §1, §3

The target in the next data set is βCys93 of Hb (Homo sapiens, UniProt P68871). As to the kind of experiment: Reactivity toward βCys93 of Hb (DTNB disulfide exchange, absorbance at 412 nm). Type of data set: biochemical. The settings on record: 2 mM compound, Hb 50 μM, four hours at 25° C. How it is done:
Experimental Procedure: Aqueous solution of Hb (50 μM) was mixed with MMA 409 or MMA 410 (2 mM). Additionally, Hb was mixed with phosphate buffered saline (PBS) to serve as a negative control. […] Ethacrynic acid, which is known to bind to the thiols of hemoglobin and thus limits the reaction between DTNB (5,5′-dithiobis-(2-nitrobenzoic acid) and βCys93, was studied as a positive control.^42 The mixtures were incubated for four hours at 25° C., and then centrifuged with washing to separate excess reagents from the Hb. The washed hemoglobin was stored overnight at 4° C. After, 5 μL of 100 mM DTNB was added to 25 μL of each Hb solution, and these solutions were each diluted to 500 μL in 0.1 M phosphate buffer and were incubated for an hour. Another 25 μL of each Hb solution was diluted to 500 μL in buffer to serve as a non-DTNB control. The tubes containing these solutions were centrifuged, and the collected yellow filtrate was quantified by measuring absorbance at 412 nm using a spectrophotometer as previously described.^42

Data set [3] addresses T3, Hb (Homo sapiens, UniProt P68871+P69905).
T3 construct: Normal whole blood was collected from adult donors; from tissue; host or cells: normal whole blood of adult donors
The data set can be described thus: In vitro time-dependent Hb oxygen equilibrium study using normal whole blood. The settings on record: 2 mM; normal whole blood 30% hct; 37° C.; 1, 4 and 24 hr. The class given is in vitro ADME. How it is done: Materials and General Procedure: Normal whole blood was collected from adult donors at the Virginia Commonwealth University after informed consent, in accordance with regulations of the IRB for Protection of Human.
Experimental procedure: MMA-409 and the control 5-HMF were used to conduct time-dependent studies on Hb oxygen oxygen equilibrium using normal whole blood. The study was performed in a 96-well deep well (Thermo Scientific) plate, where each compound at 2 mM concentration was added to 600 μL of whole blood (30% hct) and incubated at 37° C. for 24 hr with shaking (at 140 rpm). Additionally, DMSO (1%) alone was also tested as a negative control. At 1, 4 and 24 hr time intervals, 75 μL aliquot of blood was removed from each well using a multichannel pipette and the reaction stopped by freezing at −80° C. until ready for hemoximetry analysis using Hemox™ Analyzer (TCS Scientific Corp.) to assess P50 shifts.^32 The observed P50 shifts values in % P50 shifts were plotted as function of time [hrs].

The conditions of data set [4]: in-vivo; aldehyde protected by L-cysteine; cited from earlier work.

`O=C(O)/C=C/c1ccc(CO)o1` [MMA-401, (E)-3-(5-(hydroxymethyl)furan-2-yl)acrylic acid] gave a melting point of 138 °C.

With `CC(=O)/C=C/c1ncc[nH]1` [MMA-301, (E)-4-(1H-imidazol-2-yl)but-3-en-2-one], at Hb [1], the activation at 2000 µM was 12.7% and the activation at 5000 µM came out at 18.2%.

On to `NC(=O)C(=O)c1ncc[nH]1` [MMA-304], for which, on Hb [1], the activation at 2000 µM came out at 16.5% and the activation at 5000 µM came to 22.1%.

In the case of `CC(=O)/C=C/c1ccc(CO)o1` [MMA-404, (E)-4-(5-(hydroxymethyl)furan-2-yl)but-3-en-2-one], the melting point is 20 °C.

Compound `NC(=O)/C=C/c1ccc(CO)o1` [MMA-403, (E)-3-(5-(hydroxymethyl)furan-2-yl)acrylamide] returned a melting point of 131 to 156 °C.

Take `C=CC(=O)c1ccc(COc2ccccc2)o1` [MMA-409]: the “RBC sickling (reduced to)” value in the data set on intact SS cells (2 mM compound) is on record as 49%. The “RBC sickling (reduced to)” value in the data set with intact SS cells (5 mM compound) was 18%. Moreover, at Hb [1], the activation at 2000 µM was 22% and the activation at 5000 µM is 52%. The “Hb modification (adduct formation)” value at Hb [2] is reported as “significant Hb modification”. In addition, the “adduct formation with globin chain” value at α- or β-globin chains is “exclusive adduct formation with the β-chain”. For the same compound, the “% free thiols of βCys93” value at βCys93 of Hb was 46%. The “time course of biological activity (P50 shift) over 24 hr” value at Hb [3] was “sustained throughout the 24 hr experiment”.

With `O=C(O)C1CSC(c2ccc(CO)o2)N1` (centres unmarked) [thiazolidine complex of 5-HMF], the “extension of 5-HMF half-life” value in data set [4] is listed as 2 fold.

Regarding `COCc1ccc(C(=O)C(F)(F)F)o1` [MMA-405, 2,2,2-trifluoro-1-(5-(methoxymethyl)furan-2-yl)ethan-1-one], the “effect on Hb affinity for oxygen” value on Hb [1] is given as “no effect”.

Consider `O=Cc1ccc(CO)o1` [5-HMF, 5-Hydroxymethylfurfural], for which the “RBC sickling (reduced to)” value in the data set on intact SS cells (2 mM compound) came out at 50%; in the data set with intact SS cells (5 mM compound), 14%. At Hb [1], the activation at 2000 µM came out at 33%. For the same compound, at Hb [3], the “time course of biological activity (P50 shift) over 24 hr” value is “declined rapidly”.

Consider `COC(=O)/C=C/c1ccc(CO)o1` [MMA-406, methyl (E)-3-(5-(hydroxymethyl)furan-2-yl)acrylate], for which the melting point came out at 66 °C. Further, the “effect on Hb affinity for oxygen” value at Hb [1] is reported as “no effect”.

In the case of `C=C(CC)C(=O)c1ccc(OCC(=O)O)c(Cl)c1Cl` [ethacrynic acid, Ethacrynic acid, reference compound], on βCys93 of Hb, the “% free thiols of βCys93” value turned out to be 54%.

As to `COc1cc(C=O)ccc1O` [vanillin, reference compound], in the data set with intact SS cells (2 mM compound), the “RBC sickling (reduced to)” value was determined as 57%. The “RBC sickling (reduced to)” value in the data set with intact SS cells (5 mM compound) is reported as 36%. On Hb [1], the activation at 2000 µM came out at 12% and the activation at 5000 µM is 27%.

For `C#CC(=O)c1ccc(COc2ccccc2)o1` [MMA-410], the “% free thiols of βCys93” value at βCys93 of Hb was 54%.

Source of the values: US11319292B2, “Metabolically stable 5-HMF derivatives for the treatment of hypoxia” (King Abdulaziz University, priority 2020, dated 2022).
